Experiment [1] has as its system Staphylococcus aureus (ATCC 29213). The experiment in a line: Checkerboard combination / MIC assay with S. aureus ATCC 29213. The experiment is classed as cell-based. As to conditions: S. aureus ATCC 29213; for MIC: Staphylococcus aureus, read-out: MIC of antibiotic alone. Here is the method: (§1) Colonies were suspended in PBS. The absorbance of each suspension was measured with a spectrophotometer, and then the suspension was adjusted to 1×10^6 CFU/mL. The testing inoculum was prepared within 20 minutes before adding to wells of the test plate. Final cellular density in the checkerboard assays was 5×10^5 CFU/mL.
(§2) The combination effect of antibacterial substances administered together was evaluated by an in vitro checkerboard combination method with Staphylococcus aureus (ATCC 29213) and Staphylococcus aureus (BAA-1717). Ramizol and Chlopam were tested alone in 11 points by two-fold serial titration and in combination with different commercial antibiotics which were tested in a 7-point titration alone and in combination with Ramizol and Chlopam using the checkerboard technique as recommended by the Clinical & Laboratory Standards Institute (CLSI. Methods for Dilution In Antimicrobial Susceptibility Tests for Bacteria That Grow Aerobically; Approved Standard-Eighth Edition. CLSI document M07-A8 (ISBN 1-56238-689-1). Vol. 29 No. 2. Clinical and Laboratory Standards Institute, USA, 2009). The commercial antibiotics were also tested alone. Twenty-four checkerboard tests were performed.
(§3) The starting concentration of Ramizol, Chlopam, and the commercial antibiotics was four fold of the MIC. The testing range for each combination was described in the following summary tables.
(§4) Compound dilutions of Ramizol and Chlopam were performed in 100% DMSO and the final DMSO concentration in all test wells was 2%. Growth control wells also included 2% DMSO. CLSI protocol was followed for medium, inoculum preparation, and endpoint reading. The commercial antibiotics were dissolved and diluted in the CLSI specified diluent. The final inoculum count for each strain was 5×10^5 CFU/mL.
Cefepime, Daptomycin, Linezolid, Mupirocin, Oxacillin and Vancomycin were also tested alone. Each test substance was dissolved and diluted in 100% DMSO or specified solvent. Each test substance dilution (2 μL) was added to 96 μL broth CAMHB. CAMHB seeded with S. aureus ATCC 29213 at 1×10^6 CFU/mL (100 μL) was then added to the plate to generate a final cell count at 5×10^5 CFU/mL.
(§5) Assay plates were incubated and MIC endpoints were read as described in the MIC assay. FIC (Fraction Inhibitory Concentration) and FIC Index (FICI) values for each test condition and the average of FICI values of all pairwise combinations were calculated to determine if synergy or antagonism existed between the two substances. The FIC index was determined by calculating the sum of the ratios of MICs for both substances. Arithmetically, the FIC Index of a combination of Substance 1 and Substance 2 was defined as following: FICI=Σ[FIC(Substance 1)+FIC(Substance 2)]=[(MIC of Substance 1 in combination/MIC of Substance 1 alone)+(MIC of Substance 2 in combination/MIC of Substance 2 alone)]. Synergy is defined as the FICI (Σ)≤0.5; additivity as FICI (Σ)>0.5 to ≤1; indifference as FICI (Σ)>1 to ≤4; antagonism is defined as the FICI (Σ)>4 (Zinner and Blaser, J. Journal of Antimicrobial Chemotherapy (1986), 17, 1-5; Amin, et al BMC Complementary & Alternative Medicine (2015), 15, 59; Zuo, et al. Molecules (2011), 16, 9819-9826).

Experiment [2] concerns Staphylococcus aureus (BAA-1717). The experiment in a line: Checkerboard combination / MIC assay with S. aureus BAA-1717 (MRSA). The experiment is classed as cell-based. As to conditions: for MIC: Staphylococcus aureus, ATCC BAA-1717 / BAA-1717, read-out: MIC of antibiotic alone. Here is the method:
as §1, §2, §3, §4
Each test substance was dissolved and diluted in 100% DMSO or specified solvent. Each test substance dilution (2 μL) was added to 96 μL broth CAMHB. CAMHB seeded with S. aureus BAA-1717 at 1×10^6 CFU/mL (100 μL) was then added to the plate to generate a final cell count at 5×10^5 CFU/mL.
as §5

The mark [3] stands for this setting: ATCC29213, Table 4, checkerboard series with Chlopam.
[4] abbreviates: ATCC29213, Table 7, checkerboard series with Ramizol.

The results in this text go back to US20190328691A1, “ANTIBIOTIC THERAPY” (Boulos & Cooper Pharmaceuticals Pty Ltd, priority 2015, published 2019).

Where “and” joins values, the source holds several entries; their conditions need not be identical. Identical values can stand only once. Like-named read-outs stand apart in the source and are kept apart here.

By MIC is commonly meant the least concentration at which growth counts as inhibited. Turning to `O=C(O)Cc1ccc(/C=C/c2cc(/C=C/c3ccc(CC(=O)O)cc3)cc(/C=C/c3ccc(CC(=O)O)cc3)c2)cc1` [Chlopam, 2,2′,2″-{[(1E,1′E,1″E)-benzene-1,3,5-triyltris(ethene-2,1-diyl)]tris(benzene-4,1-diyl)}triacetic acid], the MIC in experiment [1] (setting [3]) amounted to 0.5 µg/mL; in experiment [2] (Table 4, checkerboard series with Chlopam, S. aureus ATCC BAA-1717), 1 µg/mL.

`Cc1onc(-c2ccccc2)c1C(=O)N[C@@H]1C(=O)N2[C@@H]1SC(C)(C)[C@@H]2C(=O)O` [Oxacillin]: the “FICI of combination with Chlopam” value in experiment [1] (Chlopam 0.003906 μg/mL + labelled antibiotic at MIC of same cell) was 1.0; in experiment [1] (Chlopam 0.0078125 μg/mL + labelled antibiotic at MIC of same cell), 1.0; in experiment [1] (Chlopam 0.015625 μg/mL + labelled antibiotic at MIC of same cell), 1.0; in experiment [1] (Chlopam 0.125 μg/mL + labelled antibiotic at MIC of same line), 0.5 and 0.8; in experiment [1] (Chlopam 0.25 μg/mL + labelled antibiotic at MIC of same cell), 0.8; in experiment [1] (Chlopam 0.5 μg/mL + labelled antibiotic at MIC of same cell), 1.0. For the same molecule, the “FICI of combination with Chlopam” value in experiment [2] (Chlopam 0.001953 μg/mL + labelled antibiotic at MIC of same cell, S. aureus ATCC BAA-1717) was found to be 1.0; in experiment [2] (Chlopam 0.003906 μg/mL + labelled antibiotic at MIC of same cell, S. aureus ATCC BAA-1717), 1.0; in experiment [2] (Chlopam 0.0078125 μg/mL + labelled antibiotic at MIC of same cell, S. aureus ATCC BAA-1717) it was 1.0. Moreover, the “MIC of antibiotic in combination with Chlopam” value in experiment [1] (Chlopam 0.003906 μg/mL) is 0.5 µg/mL; in experiment [1] (Chlopam 0.0078125 μg/mL), 0.5 µg/mL; in experiment [1] (Chlopam 0.015625 μg/mL), 0.5 µg/mL; in experiment [1] (Chlopam 0.125 μg/mL), 0.125 µg/mL and 0.25 µg/mL; in experiment [1] (Chlopam 0.25 μg/mL), 0.125 µg/mL; in experiment [1] (Chlopam 0.5 μg/mL), 0.01563 µg/mL. Besides, the “Effect of individual antibiotic combinations of lower concentrations” value in experiment [1] (Chlopam and Oxacillin: 0.0125 and 0.125 μg/mL) is reported as “synergistic effect”. For the same molecule, the “FICI of combination with Ramizol” value in experiment [1] (Ramizol 0.015625 μg/mL + labelled antibiotic at MIC of same cell) is listed as 1.0; in experiment [1] (Ramizol 0.03125 μg/mL + labelled antibiotic at MIC of same cell), 1.0; in experiment [1] (Ramizol 0.0625 μg/mL + labelled antibiotic at MIC of same cell), 1.0; in experiment [1] (Ramizol 0.125 μg/mL + labelled antibiotic at MIC of same cell), 1.0; in experiment [1] (Ramizol 4 μg/mL + labelled antibiotic at MIC of same cell), 1.0; in experiment [2] (Ramizol 0.015625 μg/mL + labelled antibiotic at MIC of same cell, S. aureus ATCC BAA-1717), 1.0. The “FICI of combination with Ramizol” value in experiment [2] (Ramizol 0.03125 μg/mL + labelled antibiotic at MIC of same cell, S. aureus ATCC BAA-1717) was found to be 1.0; in experiment [2] (Ramizol 0.0625 μg/mL + labelled antibiotic at MIC of same cell, S. aureus ATCC BAA-1717), 1.0. The “MIC of antibiotic in combination with Ramizol” value in experiment [1] (Ramizol 0.015625 μg/mL) came out at 0.5 µg/mL; in experiment [1] (Ramizol 0.03125 μg/mL), 0.5 µg/mL; in experiment [1] (Ramizol 0.0625 μg/mL), 0.5 µg/mL; in experiment [1] (Ramizol 0.125 μg/mL), 0.5 µg/mL; in experiment [1] (Ramizol 4 μg/mL) it was 0.016 µg/mL. The minimal inhibitory concentration (MIC) in experiment [1] (setting [3]) and in experiment [1] (setting [4]) was 0.5 µg/mL in each case. In addition, the “Effect of the combinations with Chlopam (by mean FICI)” value in experiment [1] (labelled antibiotic + Chlopam) is “additive effect”. The “mean FICI of combination with Chlopam” value worked out at 1.0 in experiment [1] (labelled antibiotic + Chlopam, mean of all pairwise combinations) and 1.2 in experiment [2] (labelled antibiotic + Chlopam, mean of all pairwise combinations, S. aureus ATCC BAA-1717). Also, the “mean FICI of combination with Ramizol” value turned out to be 1.2 in experiment [1] (labelled antibiotic + Ramizol, mean of all pairwise combinations) and 0.9 in experiment [2] (labelled antibiotic + Ramizol, mean of all pairwise combinations, S. aureus ATCC BAA-1717). Further, in experiment [2] (labelled antibiotic + Ramizol, S. aureus BAA-1717), the “Effect of the combinations with Ramizol (by mean FICI)” value is “additive effect”.

In the case of `O=C(O)c1ccc(/C=C/c2cc(/C=C/c3ccc(C(=O)O)cc3)cc(/C=C/c3ccc(C(=O)O)cc3)c2)cc1` [Ramizol, 1,3,5-Tris[(1E)-2′-(4″-benzoic acid)vinyl]benzene], the MIC is 4 µg/mL in experiment [1] (setting [4]) and 4 µg/mL in experiment [2] (Table 7, checkerboard series with Ramizol, S. aureus ATCC BAA-1717).
